Where “and” joins values, the source holds several entries; their conditions need not be identical. Equal values may be shown once.
Test system: patients with psoriatic arthritis
Experiment: Phase 2 trial in psoriatic arthritis: PASI75 response at week 16
Format: in vivo, human
Settings: for Number of subjects: 12 mg QD
Description: In a double-blind Phase 2 trial, 203 patients with psoriatic arthritis were randomized into three groups: deucravacitinib 6 mg once daily (N=70), deucravacitinib 12 mg once daily (N=67), or placebo (N=66). All subjects had active psoriatic arthritis according to the Classification Criteria for Psoriatic Arthritis (CASPAR); for active disease, these criteria required ≥3 tender joint count, ≥3 swollen joint count, and a C-reactive protein level above 3 mg/L. Other inclusion criteria included the following: presence of at least one plaque psoriasis lesion, and prior treatment failure with a non-biologic disease modifying anti-rheumatic drug, a non-steroidal anti-inflammatory drug, or a steroid. With respect to treatment history, approximately 70% of subjects had not received prior treatment with a biologic and were biologic naïve, while up to 30% of subjects had failed or had been intolerant to one TNF-inhibitor (TNF=Tumor necrosis factor, also known as TNFα). Randomization was stratified by prior TNF-inhibitor use (experienced/naïve) and body weight (<90 kg and ≥90 kg).
Clinical measures included the Psoriasis […] (PASI) score for skin psoriasis, American College of Rheumatology 20 (ACR20) response, Psoriatic Arthritis Disease Activity Score (PASDAS), Health Assessment Questionnaire-Disability Index (HAQ-DI), and Disease Activity Score 28 CRP (DAS28). To evaluate the predictive value of different protein measurements for the clinical response to deucravacitinib, baseline protein concentrations for responders and non-responders, as defined by ACR20 or PASI75 at week 16, were compared for each arm (placebo, 6 mg deucravacitinib once-daily, and 12 mg deucravacitinib once-daily).
In addition, a logistic regression model was fit, to determine whether baseline disease score (dichotomized by the median baseline score, into baseline score high and baseline score low groups) was associated with response status. The model generated an odds ratio for each dosed arm versus placebo, in baseline score high and baseline score low groups.
Boxplots for baseline protein level by response were generated with a horizontal line indicating the median protein level at baseline. For each treatment arm, a two-sample t-test was performed to test whether mean baseline serum protein level was different in responders versus non-responders. A Wilcoxon rank sum test (Mann-Whitney U test) was also performed to evaluate the difference in median serum protein level between responders and non-responders. Further, barplots of ACR20 and PASI75 response rate at week 16 for each treatment arm were generated for all subjects (protein level high and protein level low subjects, dichotomized according to median baseline level). Line plots of ACR20 and PASI75 response rate over time for each treatment arm were generated for protein level high and protein level low groups. Logistic regression models were also fit to evaluate associations between baseline protein levels and clinical outcome.
For certain analyses described herein, patients were dichotomized by median values (e.g., of the proteins listed above or other measures) into “high” and “low” groups, such that the high group had values above the median and the low group had values less than or equal to the median.
In addition, logistic regression models were fit for response measures ACR20 and PASI75, to generate the odds ratio of each of the deucravacitinib treatment arms versus placebo, in BD2-high and BD2-low groups. The following logistic regression models were used: • For ACR20 response status: ACR20 (Y/N)=treatment arm+BD2 group+treatment arm*BD2 group+TNF-inhibitor use+baseline weight (continuous). • For PASI75 response status: PASI75 (Y/N)=treatment arm+BD2 group+treatment arm*BD2 group+TNF-inhibitor use+baseline weight (continuous). […]

## [2H]C([2H])([2H])NC(=O)c1nnc(NC(=O)C2CC2)cc1Nc1cccc(-c2ncn(C)n2)c1OC [deucravacitinib, 6-(cyclopropanecarboxamido)-4-((2-methoxy-3-(1-methyl-1H-1,2,4-triazol-3-yl)phenyl)amino)-N-(methyl-d3)pyridazine-3-carboxamide]
PASI75 responder at week 16, above median baseline IL-19 level
  Number of subjects: 20
PASI75 responder at week 16, below baseline PASI median 6.6
  Number of subjects: 11
PASI75 responder at week 16, below median baseline BD2 level
  Number of subjects: 19
PASI75 responder at week 16, below median baseline IL-17A level
  Number of subjects: 12
PASI75 responder at week 16, below median baseline IL-19 level
  Number of subjects: 10
PASI75 responder, BD2-high-PASI-high
  Number of subjects: 13
PASI75 responder, BD2-high-PASI-low
  Number of subjects: 7
PASI75 responder, BD2-low-PASI-high
  Number of subjects: 6
PASI75 responder, BD2-low-PASI-low
  Number of subjects: 4
PASI75 responder, IL-17A-high-PASI-high
  Number of subjects: 10
PASI75 responder, IL-17A-high-PASI-low
  Number of subjects: 8
PASI75 responder, IL-17A-low-PASI-high
  Number of subjects: 9
PASI75 responder, IL-17A-low-PASI-low
  Number of subjects: 3
PASI75 responder, IL-19-high-PASI-high
  Number of subjects: 12
PASI75 responder, IL-19-high-PASI-low
  Number of subjects: 8
PASI75 responder, IL-19-low-PASI-high
  Number of subjects: 7
PASI75 responder, IL-19-low-PASI-low
  Number of subjects: 3
All patients, 6 mg QD vs placebo, not adjusted for baseline disease activity
  Odds Ratio, PASI75 response status: 2.88
All patients, 6 mg QD vs placebo, week 16
  Odds Ratio for PASI75 response: 2.88
All patients, 6 mg QD vs placebo, week 16, adjusted for baseline PASI score
  Odds Ratio, PASI75 response status: 3.052 and 3.05
All patients, 12 mg QD vs placebo, not adjusted for baseline disease activity
  Odds Ratio, PASI75 response status: 5.781 and 5.78
All patients, 12 mg QD vs placebo, week 16
  Odds Ratio for PASI75 response: 5.781
All patients, 12 mg QD vs placebo, week 16, adjusted for baseline PASI score
  Odds Ratio, PASI75 response status: 6.494 and 6.49
All patients, deucravacitinib treatment arms combined vs placebo, week 16
  Odds Ratio for PASI75 response: 3.998
All patients, treatment arms combined vs placebo
  Odds Ratio, PASI75 response status: 3.998
BD2-high group, 6 mg QD and 12 mg QD vs placebo arm (FIG. 7)
  PASI75 response rate at week 16: higher in both 6 mg QD and 12 mg QD treatment arms compared to the placebo arm
BD2-high-PASI-high, 6 mg QD vs placebo, week 16
  Odds Ratio for PASI75 response: 29.67
BD2-high-PASI-high, 12 mg QD vs placebo, week 16
  Odds Ratio for PASI75 response: 43.084
BD2-high-PASI-low, 6 mg QD vs placebo, week 16
  Odds Ratio for PASI75 response: 2.331
BD2-high-PASI-low, 12 mg QD vs placebo, week 16
  Odds Ratio for PASI75 response: 10.995
BD2-low-PASI-high, 6 mg QD vs placebo, week 16
  Odds Ratio for PASI75 response: 0.825
BD2-low-PASI-high, 12 mg QD vs placebo, week 16
  Odds Ratio for PASI75 response: 7.787
BD2-low-PASI-low, 6 mg QD vs placebo, week 16
  Odds Ratio for PASI75 response: 1.093
BD2-low-PASI-low, 12 mg QD vs placebo, week 16
  Odds Ratio for PASI75 response: 0.967
BD2 high (baseline above median 9,265 ng/L), 6 mg QD vs placebo, week 16
  Odds Ratio for PASI75 response: 10.905
BD2 high (baseline above median 9,265 ng/L), 12 mg QD vs placebo, week 16
  Odds Ratio for PASI75 response: 24.118
BD2 high, treatment arms combined vs placebo, week 16
  Odds Ratio for PASI75 response: 15.415
BD2 low, 6 mg QD vs placebo, week 16
  Odds Ratio for PASI75 response: 0.938
BD2 low, 12 mg QD vs placebo, week 16
  Odds Ratio for PASI75 response: 1.695
BD2 low, treatment arms combined vs placebo, week 16
  Odds Ratio for PASI75 response: 1.274
Baseline PASI high (above median 6.6), 6 mg QD vs placebo, week 16
  Odds Ratio for PASI75 response: 6.94 and 6.937
Baseline PASI high (above median 6.6), 12 mg QD vs placebo, week 16
  Odds Ratio for PASI75 response: 15.75
Baseline PASI low (at or below median 6.6), 6 mg QD vs placebo, week 16
  Odds Ratio for PASI75 response: 1.26 and 1.258
Baseline PASI low (at or below median 6.6), 12 mg QD vs placebo, week 16
  Odds Ratio for PASI75 response: 2.454
CRP high, 6 mg QD vs placebo
  Odds Ratio, PASI75 response status: 3.54
CRP high, 12 mg QD vs placebo
  Odds Ratio, PASI75 response status: 9.78
CRP high, treatment arms combined vs placebo
  Odds Ratio, PASI75 response status: 5.405
CRP level above median and baseline PASI score above median, 6 mg QD vs placebo, week 16
  Odds Ratio for PASI75 response: 18.381
CRP low, 6 mg QD vs placebo
  Odds Ratio, PASI75 response status: 2.12
CRP low, 12 mg QD vs placebo
  Odds Ratio, PASI75 response status: 3.72
CRP low, treatment arms combined vs placebo
  Odds Ratio, PASI75 response status: 2.840
CRP-high-PASI-high, 6 mg QD vs placebo
  Odds Ratio, PASI75 response status: 18.381

From patent publication US20240390369A1, “METHODS FOR DETERMINING RESPONSIVENESS TO TYK2 INHIBITORS” (Bristol-Myers Squibb Company, priority 2021, published 2024)
